Converted amounts (≈) assume the structure as drawn. Where two headings read alike, the source gives them in different places. Where a SMILES comes first, the peptide text is derived from it. [ ]: non-standard residue; d: D form.
Legend:
[1] = tested on: A. baumannii; assay: MIC of antibiotic during combined treatment with antimicrobial peptide; type: cell-based, Acinetobacter baumannii; details: for Antibiotic MIC, Erythromycin / Antibiotic MIC, Linezolid / Antibiotic MIC, Vancomycin: A. baumannii
In short: (§1)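 Using MH broth, we determined combination MICs by titrating the antibiotic into wells and then repeating under the reverse dilution scheme.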

[2] = tested on: S. aureus; assay: microbe, parasite or virus in culture; type: cell-based, Staphylococcus aureus
In short: (§2)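 Broth microdilution in MH medium: bacterial strains diluted to 2×10^6 CFU were mixed with equal volumes of peptide serially diluted twofold in MH medium.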

[3] = tested on: MDRAB 12035; assay: microbe, parasite or virus in culture; type: cell-based, Acinetobacter baumannii
In short: as §2

[4] = tested on: A. baumannii; assay: microbe, parasite or virus in culture; type: cell-based, Acinetobacter baumannii
In short: as §2

[5] = tested on: P. aeruginosa; assay: microbe, parasite or virus in culture; type: cell-based, Pseudomonas aeruginosa
In short: as §2

[6] = tested on: MDRST 8009; type: cell-based, Salmonella typhimurium; details: agent alone
In short: as §2

[7] = tested on: E. coli; assay: MIC of antibiotic during combined treatment with antimicrobial peptide; type: cell-based, Escherichia coli; details: for Antibiotic MIC, Erythromycin / Antibiotic MIC, Linezolid / Antibiotic MIC, Vancomycin: E. coli
In short: as §1

[8] = tested on: MDRAB 12035; assay: MIC of antimicrobial peptide during combined treatment with antibiotic; type: cell-based, Acinetobacter baumannii
In short: (§3)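 Broth microdilution in MH medium; strains were diluted to 2×10^6 CFU per ml before plating. Peptide was serially diluted stepwise at 2:1 starting from its MIC, and MH-diluted antibiotic was then added to determine MIC. The reversed arrangement was also tested.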

[9] = tested on: A. baumannii; assay: as above; type: cell-based, Acinetobacter baumannii
In short: as §3

[10] = tested on: E. coli; type: cell-based, Escherichia coli; details: E. coli
In short: as §3

[11] = tested on: MDREC 1229; type: cell-based, Escherichia coli
In short: as §3

[12] = tested on: S. epidermidis; assay: microbe, parasite or virus in culture; type: cell-based, Staphylococcus epidermidis
In short: as §2

[13] = tested on: B. subtilis; assay: microbe, parasite or virus in culture; type: cell-based, Bacillus subtilis
In short: as §2

[14] = tested on: E. coli; assay: microbe, parasite or virus in culture; type: cell-based, Escherichia coli; details: 16 h
In short: as §2

[15] = tested on: MDREC 1229; assay: microbe, parasite or virus in culture; type: cell-based, Escherichia coli
In short: as §2

[16] = combined with peptide at 2 μg/ml
[17] = combined with peptide at 4 μg/ml
[18] = combined with peptide at 6 μg/ml
[19] = combined with peptide at 8 μg/ml
[20] = combined with peptide at 16 μg/ml
[21] = combined with peptide at 32 μg/ml
[22] = combined with peptide at 64 μg/ml
[23] = erythromycin 4 μg/ml (Conc./MIC 1/8)
[24] = erythromycin 8 μg/ml (Conc./MIC 1/4)
[25] = erythromycin 16 μg/ml (Conc./MIC 1/2)
[26] = erythromycin 32 μg/ml (Conc./MIC 1)
[27] = linezolid 64 μg/ml (Conc./MIC 1/8)
[28] = linezolid 512 μg/ml (Conc./MIC 1)
[29] = vancomycin 512 μg/ml (Conc./MIC 1/2)
[30] = vancomycin 1024 μg/ml (Conc./MIC 1)

Structure (SMILES): CC[C@H](C)[C@H](NC(=O)[C@H](CCCCN)NC(=O)[C@H](Cc1c[nH]c2ccccc12)NC(=O)[C@@H](N)CCCNC(=N)N)C(=O)N[C@@H](Cc1ccccc1)C(=O)N[C@@H](CCCCN)C(=O)N[C@@H](CCCCN)C(=O)N[C@H](C(=O)N[C@H](CC(C)C)C(=O)N[C@@H](CCCCN)C(=O)N[C@@H](CC(C)C)C(=O)N[C@@H](CC(C)C)C(=O)N[C@@H](Cc1c[nH]cn1)C(=O)N[C@@H](CCC(=O)O)C(=O)N[C@@H](C)C(=O)N[C@@H](CCCCN)C(=O)N[C@@H](CCCCN)C(=O)N[C@@H](Cc1c[nH]c2ccccc12)C(N)=O)[C@@H](C)CC [PapMA-24, RWK IFK KIl KLL HEA KKW-NH2] (H-RWKIFKKI[dL]KLLHEAKKW-NH2; N-terminus assumed)
- Synergistic effect of antibacterial activity with existing antibiotics compared with PapMA-1 ([1]; A. baumannii and MDRAB 12035): level similar to that of PapMA-1 peptide
- Antibiotic MIC, Erythromycin [1, 16]: 32 µg/mL
- Antibiotic MIC, Linezolid [1, 16]: >128 µg/mL
- Antibiotic MIC, Vancomycin [1, 16]: 128 µg/mL
- Antibiotic MIC, Erythromycin [1, 17]: 8 µg/mL
- Antibiotic MIC, Linezolid [1, 17]: 64 µg/mL
- Antibiotic MIC, Vancomycin [1, 17]: 64 µg/mL
- Antibiotic MIC, Erythromycin [1, 18]: 2 µg/mL
- Antibiotic MIC, Linezolid [1, 18]: 8 µg/mL
- Antibiotic MIC, Vancomycin [1, 18]: 16 µg/mL
- Antibiotic MIC, Erythromycin [1, 19]: 0.5 µg/mL
- Antibiotic MIC, Linezolid [1, 19]: 4 µg/mL
- Antibiotic MIC, Vancomycin [1, 19]: 8 µg/mL
- Antibiotic MIC, Erythromycin [1, 20]: 0 µg/mL
- Antibiotic MIC, Linezolid [1, 20]: 0 µg/mL
- Antibiotic MIC, Vancomycin [1, 20]: 0 µg/mL
- Antibiotic MIC, Erythromycin [1, 21]: 0 µg/mL
- Antibiotic MIC, Linezolid [1, 21]: 0 µg/mL
- Antibiotic MIC, Vancomycin [1, 21]: 0 µg/mL
- Antibiotic MIC, Erythromycin [1, 22]: 0 µg/mL
- Antibiotic MIC, Linezolid [1, 22]: 0 µg/mL
- Antibiotic MIC, Vancomycin [1, 22]: 0 µg/mL
- Minimal inhibitory concentration MIC [2]: >128 µg/mL
- Minimal inhibitory concentration MIC [3]: 32 µg/mL (≈ 13.5 µM)
- Peptide MIC, peptide alone [3]: 32 µg/mL
- Minimal inhibitory concentration MIC [4]: 16 µg/mL (≈ 6.77 µM)
- Peptide MIC, peptide alone [4]: 16 µg/mL
- Antibacterial activity relative to PapMA-1 ([4]; A. baumannii and S. typhimurium): at least twice as high
- Minimal inhibitory concentration MIC [5]: 64 µg/mL (≈ 27.1 µM)
- Minimal inhibitory concentration MIC [6]: 32 µg/mL (≈ 13.5 µM)
- Synergistic effect of antibacterial activity with existing antibiotics compared with PapMA-1 ([7]; E. coli and MDREC1229): level similar to that of the PapMA-1 peptide
- Antibiotic MIC, Erythromycin ([7]; erythromycin combined with peptide at 1 μg/ml): 64 µg/mL
- Antibiotic MIC, Erythromycin ([7]; erythromycin combined with peptide at 2 μg/ml): 32 µg/mL
- Antibiotic MIC, Erythromycin ([7]; erythromycin combined with peptide at 4 μg/ml): 16 µg/mL
- Antibiotic MIC, Erythromycin ([7]; erythromycin combined with peptide at 6 μg/ml): 4 µg/mL
- Antibiotic MIC, Erythromycin ([7]; erythromycin combined with peptide at 8 μg/ml): 2 µg/mL
- Antibiotic MIC, Erythromycin ([7]; erythromycin combined with peptide at 16 μg/ml): 0.5 µg/mL
- Antibiotic MIC, Erythromycin ([7]; erythromycin combined with peptide at 32 μg/ml): 0 µg/mL
- Antibiotic MIC, Erythromycin ([7]; erythromycin combined with peptide at 64 μg/ml): 0 µg/mL
- Antibiotic MIC, Linezolid ([7]; linezolid combined with peptide at 1 μg/ml): >128 µg/mL
- Antibiotic MIC, Linezolid ([7]; linezolid combined with peptide at 2 μg/ml): 128 µg/mL
- Antibiotic MIC, Linezolid ([7]; linezolid combined with peptide at 4 μg/ml): 64 µg/mL
- Antibiotic MIC, Linezolid ([7]; linezolid combined with peptide at 6 μg/ml): 32 µg/mL
- Antibiotic MIC, Linezolid ([7]; linezolid combined with peptide at 8 μg/ml): 32 µg/mL
- Antibiotic MIC, Linezolid ([7]; linezolid combined with peptide at 16 μg/ml): 8 µg/mL
- Antibiotic MIC, Linezolid ([7]; linezolid combined with peptide at 32 μg/ml): 0 µg/mL
- Antibiotic MIC, Linezolid ([7]; linezolid combined with peptide at 64 μg/ml): 0 µg/mL
- Antibiotic MIC, Vancomycin ([7]; vancomycin combined with peptide at 1 μg/ml): >128 µg/mL
- Antibiotic MIC, Vancomycin ([7]; vancomycin combined with peptide at 2 μg/ml): >128 µg/mL
- Antibiotic MIC, Vancomycin ([7]; vancomycin combined with peptide at 4 μg/ml): 128 µg/mL
- Antibiotic MIC, Vancomycin ([7]; vancomycin combined with peptide at 6 μg/ml): 32 µg/mL
- Antibiotic MIC, Vancomycin ([7]; vancomycin combined with peptide at 8 μg/ml): 16 µg/mL
- Antibiotic MIC, Vancomycin ([7]; vancomycin combined with peptide at 16 μg/ml): 8 µg/mL
- Antibiotic MIC, Vancomycin ([7]; vancomycin combined with peptide at 32 μg/ml): 0 µg/mL
- Antibiotic MIC, Vancomycin ([7]; vancomycin combined with peptide at 64 μg/ml): 0 µg/mL
- Peptide MIC during treatment with erythromycin [8, 23]: 8 µg/mL
- Peptide MIC during treatment with erythromycin [8, 24]: 8 µg/mL
- Peptide MIC during treatment with erythromycin [8, 25]: 4 µg/mL
- Peptide MIC during treatment with erythromycin [8, 26]: 0 µg/mL
- Peptide MIC during treatment with linezolid [8, 27]: 4 µg/mL
- Peptide MIC during treatment with linezolid [8, 28]: 0 µg/mL
- Peptide MIC during treatment with linezolid ([8]; linezolid […] (Conc./MIC 1/2)): 1 µg/mL
- Peptide MIC during treatment with linezolid ([8]; linezolid […] (Conc./MIC 1/4)): 4 µg/mL
- Peptide MIC during treatment with vancomycin [8, 29]: 2 µg/mL
- Peptide MIC during treatment with vancomycin [8, 30]: 1 µg/mL
- Peptide MIC during treatment with vancomycin ([8]; vancomycin […] (Conc./MIC 1/4)): 4 µg/mL
- Peptide MIC during treatment with vancomycin ([8]; vancomycin […] (Conc./MIC 1/8)): 4 µg/mL
- Peptide MIC during treatment with erythromycin [9, 23]: 8 µg/mL
- Peptide MIC during treatment with erythromycin [9, 24]: 4 µg/mL
- Peptide MIC during treatment with erythromycin [9, 25]: 4 µg/mL
- Peptide MIC during treatment with erythromycin [9, 26]: 0 µg/mL
- Peptide MIC during treatment with linezolid ([9]; linezolid 32 μg/ml (Conc./MIC 1/8)): 8 µg/mL
- Peptide MIC during treatment with linezolid ([9]; linezolid 64 μg/ml (Conc./MIC 1/4)): 4 µg/mL
- Peptide MIC during treatment with linezolid ([9]; linezolid […] (Conc./MIC 1)): 0 µg/mL
- Peptide MIC during treatment with linezolid ([9]; linezolid […] (Conc./MIC 1/2)): 1 µg/mL
- Peptide MIC during treatment with vancomycin [9, 29]: 0.25 µg/mL
- Peptide MIC during treatment with vancomycin [9, 30]: 0 µg/mL
- Peptide MIC during treatment with vancomycin ([9]; vancomycin […] (Conc./MIC 1/4)): 0.5 µg/mL
- Peptide MIC during treatment with vancomycin ([9]; vancomycin […] (Conc./MIC 1/8)): 2 µg/mL
- Peptide MIC ([10]; with Erythromycin […] (Conc./MIC 1)): 0 µg/mL
- Peptide MIC ([10]; with Linezolid […] (Conc./MIC 1)): 0 µg/mL
- Peptide MIC ([10]; with Vancomycin 1024 μg/ml (Conc./MIC 1)): 0 µg/mL
- Peptide MIC during treatment with antibiotic ([11]; erythromycin 32 μg/ml (Conc./MIC 1/8)): 4 µg/mL
- Peptide MIC during treatment with antibiotic ([11]; erythromycin 64 μg/ml (Conc./MIC 1/4)): 2 µg/mL
- Peptide MIC during treatment with antibiotic ([11]; erythromycin […] (Conc./MIC 1)): 0 µg/mL
- Peptide MIC during treatment with antibiotic ([11]; erythromycin […] (Conc./MIC 1/2)): 1 µg/mL
- Peptide MIC during treatment with antibiotic [11, 27]: 4 µg/mL
- Peptide MIC during treatment with antibiotic [11, 28]: 0 µg/mL
- Peptide MIC during treatment with antibiotic ([11]; linezolid […] (Conc./MIC 1/2)): 1 µg/mL
- Peptide MIC during treatment with antibiotic ([11]; linezolid […] (Conc./MIC 1/4)): 2 µg/mL
- Peptide MIC during treatment with antibiotic [11, 29]: 2 µg/mL
- Peptide MIC during treatment with antibiotic [11, 30]: 1 µg/mL
- Peptide MIC during treatment with antibiotic ([11]; vancomycin […] (Conc./MIC 1/4)): 4 µg/mL
- Peptide MIC during treatment with antibiotic ([11]; vancomycin […] (Conc./MIC 1/8)): 8 µg/mL
- Minimal inhibitory concentration MIC [12]: >128 µg/mL
- Minimal inhibitory concentration MIC [13]: >128 µg/mL
- Minimal inhibitory concentration MIC [14]: 32 µg/mL (≈ 13.5 µM)
- Minimal inhibitory concentration MIC [15]: 32 µg/mL (≈ 13.5 µM)
- Peptide MIC, peptide alone [15]: 32 µg/mL

Reference: patent US11214594B2, “Antimicrobial peptide having synergistic antibacterial effect with antibiotics on multidrug resistant bacteria, and use thereof” (priority 2016, dated 2022)
